Data on 14 compounds can be found in patent US8859569B2, “Substituted annellated pyrimidines and use thereof” (Bayer Pharma Aktiengesellschaft, priority 2011, dated 2014).

A word on the IC50: it is the concentration at which inhibition is half-maximal. Low readings indicate greater potency in that assay, high ones weaker potency in that assay.

Test [1] has as its target T1, human phosphodiesterase 5 (PDE-5) (Homo sapiens, UniProt O76074).
T1 construct: PDE-5 preparations are obtained from human platelets by lysis; from tissue; host or cells: human platelets
The experiment in a line: Inhibition of human phosphodiesterase 5 (PDE-5), SPA assay. The test is classed as biochemical. The conditions noted are these: PDE-5 preparation from human platelets, [8-3H]cGMP substrate. The essentials: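 Scintillation proximity read-out with yttrium beads after 60 min room-temperature hydrolysis of 0.025 μCi [8-3H]cGMP, pH 7.5 Tris/MgCl2/EDTA buffer. Enzyme is a human platelet PDE-5 fraction, diluted to keep substrate turnover below 70%. Test concentrations 4 μM–0.0018 μM final; IC50 from inhibition curves.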

Test [2] addresses T2, recombinant guanylate cyclase reporter cell line (Rattus norvegicus, UniProt P19686+P20595).
T2 construct: expressed in transfected cells
T2 sequence (P20595 1-619): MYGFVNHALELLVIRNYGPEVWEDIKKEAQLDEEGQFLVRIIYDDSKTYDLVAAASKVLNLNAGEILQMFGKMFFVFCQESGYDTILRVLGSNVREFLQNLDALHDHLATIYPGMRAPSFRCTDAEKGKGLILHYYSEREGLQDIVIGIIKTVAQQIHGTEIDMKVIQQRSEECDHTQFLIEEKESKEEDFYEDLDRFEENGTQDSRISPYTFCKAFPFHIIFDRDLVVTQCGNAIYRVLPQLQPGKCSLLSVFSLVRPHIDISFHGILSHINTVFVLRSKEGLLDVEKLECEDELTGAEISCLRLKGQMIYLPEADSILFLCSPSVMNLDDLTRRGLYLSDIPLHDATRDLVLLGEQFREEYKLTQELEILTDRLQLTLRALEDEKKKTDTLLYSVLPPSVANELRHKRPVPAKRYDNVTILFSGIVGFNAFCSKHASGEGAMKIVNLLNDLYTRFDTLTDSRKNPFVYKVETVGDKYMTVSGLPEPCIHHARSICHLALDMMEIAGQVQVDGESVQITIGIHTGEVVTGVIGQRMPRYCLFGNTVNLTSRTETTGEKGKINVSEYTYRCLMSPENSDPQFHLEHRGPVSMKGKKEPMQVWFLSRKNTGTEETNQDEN
T2 sequence (P19686 1-690): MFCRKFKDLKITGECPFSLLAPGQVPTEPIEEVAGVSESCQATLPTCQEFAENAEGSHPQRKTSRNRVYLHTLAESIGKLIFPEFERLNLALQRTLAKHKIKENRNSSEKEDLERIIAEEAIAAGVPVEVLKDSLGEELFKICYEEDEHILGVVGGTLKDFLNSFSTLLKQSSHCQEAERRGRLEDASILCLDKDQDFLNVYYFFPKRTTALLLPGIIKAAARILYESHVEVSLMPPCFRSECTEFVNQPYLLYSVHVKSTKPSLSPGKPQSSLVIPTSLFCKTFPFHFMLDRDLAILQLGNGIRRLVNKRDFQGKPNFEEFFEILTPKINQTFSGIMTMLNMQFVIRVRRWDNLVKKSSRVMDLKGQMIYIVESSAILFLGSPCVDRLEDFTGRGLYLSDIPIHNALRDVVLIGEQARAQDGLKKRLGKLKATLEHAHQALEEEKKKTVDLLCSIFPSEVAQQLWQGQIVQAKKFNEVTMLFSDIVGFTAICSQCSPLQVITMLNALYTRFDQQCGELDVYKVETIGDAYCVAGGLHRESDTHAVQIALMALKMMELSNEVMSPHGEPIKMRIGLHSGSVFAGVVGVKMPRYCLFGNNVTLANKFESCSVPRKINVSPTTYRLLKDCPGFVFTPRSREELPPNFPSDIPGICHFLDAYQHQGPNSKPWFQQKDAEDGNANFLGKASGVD
The test can be described thus: Action on recombinant guanylate cyclase reporter cell line. The test is classed as cell-based. The protocol:
B-2. Action on Recombinant Guanylate Cyclase Reporter Cell Line
The cellular action of the compounds according to the invention is determined on a recombinant guanylate cyclase reporter cell line, as described in F. Wunder et al., Anal. Biochem. 339, 104-112 (2005).

In the next test the test system is aorta rings. The test can be described thus: Vessel-relaxing action in vitro (aorta rings, phenylephrine contraction). The following applies: Oryctolagus cuniculus, concentration required to reduce phenylephrine-induced contraction of rabbit aorta rings by 50%. The method, boiled down: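 Rabbit aortic rings 1.5 mm wide were held under preload in carbogen-gassed Krebs-Henseleit at 37 °C and contracted with cumulative phenylephrine. Test substance was added in rising doses on successive passes, each compared with the preceding control contraction. IC50 is the concentration that halves contraction, with 0.1% DMSO in the bath.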

SMILES strings stand for the structures.

With `CC1(C)C(=O)Nc2nc(-c3nn(Cc4ccccc4F)c4ncc(F)cc34)nc(NCC3CC3(C)C)c21` (stereo not drawn) [Example 99, 4-{[(2,2-Dimethylcyclopropyl)methyl]amino}-2-[5-fluoro-1-(2-fluorobenzyl)-1H-pyrazolo[3,4-b]pyridin-3-yl]-5,5-dimethyl-5,7-dihydro-6H-pyrrolo[2,3-d]pyrimidin-6-one], the IC50 in test [1] turned out to be 440 nM; in the test with aorta rings, 10000 nM. Also, in test [2], the “MEC (minimal effective concentration)” value amounted to 0.3 μm.
In the case of `O=C1Nc2nc(-c3nn(Cc4ccccc4F)c4ncc(F)cc34)nc(NCCC(F)(F)F)c2C12CCOC2` (stereo not drawn) [Example 100, 2′-[5-Fluoro-1-(2-fluorobenzyl)-1H-pyrazolo[3,4-b]pyridin-3-yl]-4′-[(3,3,3-trifluoropropyl)amino]-4,5-dihydrospiro[furan-3,5′-pyrrolo[2,3-d]pyrimidin]-6′(7′H)-one], the IC50 was 2800 nM in test [1] and 4760 nM in the test on aorta rings. The “MEC (minimal effective concentration)” value in test [2] is 0.3 μm.
Regarding `CC1(C)C(=O)Nc2nc(-c3nn(Cc4ccccc4F)c4ncc(F)cc34)nc(O)c21` [Example 102, 2-[5-Fluoro-1-(2-fluorobenzyl)-1H-pyrazolo[3,4-b]pyridin-3-yl]-4-hydroxy-5,5-dimethyl-5,7-dihydro-6H-pyrrolo[2,3-d]pyrimidin-6-one], the IC50 in test [1] worked out at 74 nM; with aorta rings, 156 nM. The “MEC (minimal effective concentration)” value in test [2] worked out at 1 μm.
The corresponding values for `CC1(C)C(=O)Nc2nc(-c3nn(Cc4ccccc4F)c4ncc(F)cc34)nc(N3CCC(F)(F)CC3)c21` [Example 103, 4-(4,4-Difluoropiperidin-1-yl)-2-[5-fluoro-1-(2-fluorobenzyl)-1H-pyrazolo[3,4-b]pyridin-3-yl]-5,5-dimethyl-5,7-dihydro-6H-pyrrolo[2,3-d]pyrimidin-6-one] are 400 nM, 551 nM and 1 μm.
For `CC1(C)C(=O)Nc2nc(-c3nn(Cc4ccccc4F)c4ncc(F)cc34)nc(N3CC(O)C3)c21` [Example 104, 2-[5-Fluoro-1-(2-fluorobenzyl)-1H-pyrazolo[3,4-b]pyridin-3-yl]-4-(3-hydroxyazetidin-1-yl)-5,5-dimethyl-5,7-dihydro-6H-pyrrolo[2,3-d]pyrimidin-6-one], in that order: 80 nM, 482 nM and 0.1 μm.
For `CC1(C)C(=O)Nc2nc(-c3nn(Cc4ccccc4F)c4ncccc34)nc(N3CC(N4CCCC4)C3)c21` [Example 105, 2-[1-(2-Fluorobenzyl)-1H-pyrazolo[3,4-b]pyridin-3-yl]-5,5-dimethyl-4-[3-(pyrrolidin-1-yl)azetidin-1-yl]-5,7-dihydro-6H-pyrrolo[2,3-d]pyrimidin-6-one], in that order: 980 nM, 478 nM and 0.3 μm.
With `CC1(C)C(=O)Nc2nc(-c3nn(Cc4ccccc4F)c4ncccc34)nc(N3CC(N)C3)c21` [Example 107, 4-(3-Aminoazetidin-1-yl)-2-[1-(2-fluorobenzyl)-1H-pyrazolo[3,4-b]pyridin-3-yl]-5,5-dimethyl-5,7-dihydro-6H-pyrrolo[2,3-d]pyrimidin-6-one], the results for the IC50 (in test [1]; in the test on aorta rings) were 100 nM and 700 nM, respectively. The “MEC (minimal effective concentration)” value in test [2] was 1 μm.
For `Cc1ncc2c(-c3nc(NCCC(F)(F)F)c4c(n3)NC(=O)C4(C)C)nn(Cc3ccccc3F)c2n1` [Example 108, 2-[1-(2-Fluorobenzyl)-6-methyl-1H-pyrazolo[3,4-d]pyrimidin-3-yl]-5,5-dimethyl-4-[(3,3,3-trifluoropropyl)amino]-5,7-dihydro-6H-pyrrolo[2,3-d]pyrimidin-6-one], in that order: 25 nM, 444 nM and 0.3 μm.
The corresponding values for `CC1(C)C(=O)Nc2nc(-c3nn(Cc4ccccc4F)c4ncccc34)nc(O)c21` [Example 109, 2-[1-(2-Fluorobenzyl)-1H-pyrazolo[3,4-b]pyridin-3-yl]-4-hydroxy-5,5-dimethyl-5,7-dihydro-6H-pyrrolo[2,3-d]pyrimidin-6-one] are 50 nM, 81 nM and 0.03 μm.
The corresponding values for `CCCOc1nc(-c2nn(Cc3ccccc3F)c3ncccc23)nc2c1C(C)(C)C(=O)N2` [Example 111, 2-[1-(2-Fluorobenzyl)-1H-pyrazolo[3,4-b]pyridin-3-yl]-5,5-dimethyl-4-propoxy-5,7-dihydro-6H-pyrrolo[2,3-d]pyrimidin-6-one] are 320 nM, 1620 nM and 0.3 μm.
As for `CCOc1nc(-c2nn(Cc3ccccc3F)c3ncccc23)nc2c1C(C)(C)C(=O)N2` [Example 112, 4-Ethoxy-2-[1-(2-fluorobenzyl)-1H-pyrazolo[3,4-b]pyridin-3-yl]-5,5-dimethyl-5,7-dihydro-6H-pyrrolo[2,3-d]pyrimidin-6-one], the values for the IC50 (in test [1]; in the test on aorta rings) were 210 nM and 1620 nM, respectively. In test [2], the “MEC (minimal effective concentration)” value was determined as 0.1 μm.
With `CC1(C)C(=O)Nc2nc(-c3nn(Cc4ccccc4F)c4ncccc34)nc(OCC3CC3)c21` [Example 113, 4-(Cyclopropylmethoxy)-2-[1-(2-fluorobenzyl)-1H-pyrazolo[3,4-b]pyridin-3-yl]-5,5-dimethyl-5,7-dihydro-6H-pyrrolo[2,3-d]pyrimidin-6-one], the values for the IC50 (in test [1]; with aorta rings) were 120 nM and 1960 nM, respectively. The “MEC (minimal effective concentration)” value in test [2] is recorded as 0.1 μm.
Turning to `CC1(C)C(=O)Nc2nc(-c3nn(Cc4ccccc4F)c4ncccc34)nc(OCC(F)(F)F)c21` [Example 115, 2-[1-(2-Fluorobenzyl)-1H-pyrazolo[3,4-b]pyridin-3-yl]-5,5-dimethyl-4-(2,2,2-trifluoroethoxy)-5,7-dihydro-6H-pyrrolo[2,3-d]pyrimidin-6-one], the values for the IC50 (in test [1]; in the test on aorta rings) were 250 nM and 1630 nM, respectively. The “MEC (minimal effective concentration)” value in test [2] was determined as 0.3 μm.
For `CC1(C)C(=O)Nc2nc(-c3nn(Cc4ccccc4F)c4ncccc34)nc(OCCO)c21` [Example 117, 2-[1-(2-Fluorobenzyl)-1H-pyrazolo[3,4-b]pyridin-3-yl]-4-(2-hydroxyethoxy)-5,5-dimethyl-5,7-dihydro-6H-pyrrolo[2,3-d]pyrimidin-6-one], in that order: 52 nM, 38 nM and 0.03 μm.
